# Target: T1, wild type aldosterone synthase (ASWT, CYP11B2) (Homo sapiens, UniProt P19099)
# T1 construct: full ASWT cDNA
# T1 sequence (P19099 25-503): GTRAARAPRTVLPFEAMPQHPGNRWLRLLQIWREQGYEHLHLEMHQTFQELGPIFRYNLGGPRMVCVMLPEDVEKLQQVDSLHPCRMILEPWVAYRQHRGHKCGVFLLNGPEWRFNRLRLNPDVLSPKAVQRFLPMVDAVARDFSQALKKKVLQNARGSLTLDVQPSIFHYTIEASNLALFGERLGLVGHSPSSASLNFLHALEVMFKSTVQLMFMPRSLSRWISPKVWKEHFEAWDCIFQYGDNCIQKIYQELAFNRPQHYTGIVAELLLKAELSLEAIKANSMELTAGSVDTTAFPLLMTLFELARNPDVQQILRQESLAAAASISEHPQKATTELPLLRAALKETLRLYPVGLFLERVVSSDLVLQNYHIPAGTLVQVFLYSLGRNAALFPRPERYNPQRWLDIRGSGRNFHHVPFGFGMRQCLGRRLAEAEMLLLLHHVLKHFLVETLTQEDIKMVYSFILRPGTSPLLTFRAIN
# Test: aldosterone production from DOC in CYP11B2-transfected HEK-293 cells, HPLC-MS/MS; Km/Vmax shift
# Assay type: cell-based
smiles,measurement,value
CC(=O)[C@H]1CC[C@H]2[C@@H]3CCC4=CC(=O)CC[C@]4(C)[C@H]3CC[C@]12C [progesterone],IC50,2.24 µM

# Source: publication PMC3848474, “Different effects of progesterone and estradiol on chimeric and wild type aldosterone synthase in vitro” (Reproductive Biology and Endocrinology : RB&E, 2013)
